Some test systems named below: U251 CNS; OVCAR-3 ovarian; TK-10 renal; ACHN renal; SR leukemia; MCF7 breast; CAKI-1 renal; UACC-62 melanoma.
Holding throughout (test): inhibition of tumour cell growth, NCI panel, 48 h

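Exposure lasted 48 hours, with cells grown in 96-well plates and compounds tested at five concentrations. GI50 marks 50% less growth. The concentration for full growth arrest is given as TGI.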

`O=C1/C(=C\c2ccco2)Oc2ccccc21`: the TGI in the test with U251 CNS, with OVCAR-3 ovarian, in the test on TK-10 renal, with ACHN renal, with SR leukemia and in the test with MCF7 breast was over 100 µM throughout. Moreover, the TGI in the test with CAKI-1 renal and in the test on UACC-62 melanoma was over 100 µM each time.

Turning to `Clc1ccc(/C=C/c2ccc3ccccc3n2)cc1`, the GI50 in the test on U251 CNS is 0.441 µM; in the test with OVCAR-3 ovarian, 0.917 µM; in the test on TK-10 renal, 5.24 µM; with ACHN renal, 4.82 µM; in the test on SR leukemia it was 0.443 µM; with MCF7 breast it was 0.467 µM. Besides, the GI50 was 2.29 µM with CAKI-1 renal and 1.47 µM in the test on UACC-62 melanoma. Besides, the TGI in the test with U251 CNS is over 100 µM; in the test with OVCAR-3 ovarian it was 6.73 µM; in the test on TK-10 renal, over 100 µM; in the test on ACHN renal, over 100 µM; in the test with SR leukemia it was 4.12 µM; in the test on MCF7 breast, over 100 µM. Besides, the TGI is over 57.9 µM with CAKI-1 renal and over 100 µM in the test with UACC-62 melanoma.

For the compound `COc1ccc(C(=O)c2sc3nc(-c4ccccc4OC)ccc3c2N)cc1OC`, the GI50 in the test on U251 CNS is 14.2 µM; with OVCAR-3 ovarian, 18.3 µM; with TK-10 renal, 4.87 µM; in the test on ACHN renal, 7.24 µM; with SR leukemia, 7.3 µM; in the test with MCF7 breast, 4.75 µM. The figures for the GI50 with CAKI-1 renal and in the test with UACC-62 melanoma were 27.6 µM and 4.89 µM, respectively. Moreover, the TGI in the test on U251 CNS is over 100 µM; in the test with OVCAR-3 ovarian, over 100 µM; with TK-10 renal, 33.4 µM; in the test on ACHN renal it was over 100 µM; in the test with SR leukemia, over 100 µM; with MCF7 breast, over 100 µM. Further, the TGI with CAKI-1 renal and in the test on UACC-62 melanoma was over 100 µM each time.

As for `CN(C)N1C(=O)SCC(c2ccccc2)(c2ccccc2)C1=O`, the TGI in the test on U251 CNS, in the test with OVCAR-3 ovarian, with TK-10 renal, in the test on ACHN renal, with SR leukemia and in the test with MCF7 breast was over 100 µM each time. In addition, the TGI in the test with CAKI-1 renal and with UACC-62 melanoma was over 100 µM throughout.

As for `NC(=O)c1cccnc1`, the GI50 with U251 CNS was over 100 µM; with OVCAR-3 ovarian it was over 100 µM; in the test on TK-10 renal it was over 100 µM; in the test on ACHN renal, over 100 µM; with SR leukemia, 59.8 µM; with MCF7 breast, over 100 µM. For the same compound, the GI50 in the test with CAKI-1 renal and with UACC-62 melanoma was over 100 µM in each case. Besides, the TGI in the test with U251 CNS, in the test with OVCAR-3 ovarian, in the test on TK-10 renal, with ACHN renal, in the test on SR leukemia and with MCF7 breast was over 100 µM each time. Besides, the TGI in the test on CAKI-1 renal and in the test with UACC-62 melanoma was over 100 µM each time.

Regarding `COc1ccc(-c2nc(-c3nc4cc(Cl)c(F)cc4[nH]3)c3ccccn23)cc1`, the GI50 in the test on U251 CNS was 6.67 µM; with OVCAR-3 ovarian it was 8.75 µM; in the test on TK-10 renal, 5.25 µM; with ACHN renal, 7.34 µM; with SR leukemia, 3.87 µM; with MCF7 breast, 4.57 µM. Further, the GI50 with CAKI-1 renal was 5.35 µM; in the test with UACC-62 melanoma, 6.05 µM. For the same compound, the TGI in the test on U251 CNS, in the test with OVCAR-3 ovarian, in the test on TK-10 renal, in the test with ACHN renal, in the test on SR leukemia and in the test with MCF7 breast was over 100 µM each time. Also, the TGI in the test on CAKI-1 renal and in the test with UACC-62 melanoma was over 100 µM throughout.

With `CCOC(=O)c1ccc(NC(=O)NC2=NCCS2)cc1`, the GI50 in the test on U251 CNS is 0.899 µM; with OVCAR-3 ovarian, 0.289 µM; in the test on TK-10 renal it was over 100 µM; with ACHN renal, 45.9 µM; in the test on SR leukemia, 0.973 µM; in the test on MCF7 breast, 0.517 µM. The figures for the GI50 in the test with CAKI-1 renal and with UACC-62 melanoma were 1.39 µM and 7.96 µM, respectively. Also, the TGI in the test with U251 CNS was over 100 µM; in the test on OVCAR-3 ovarian, 0.897 µM; with TK-10 renal, over 100 µM; with ACHN renal, over 100 µM; with SR leukemia, over 100 µM; in the test with MCF7 breast it was over 100 µM. Besides, the TGI with CAKI-1 renal and in the test with UACC-62 melanoma was over 100 µM in each case.

With `Cn1c(=O)n(C)c2cc(CNCCNc3ccnc4cc(Cl)ccc34)ccc21`, the GI50 with U251 CNS is 22.1 µM; in the test with OVCAR-3 ovarian, 30.8 µM; with TK-10 renal, 40.2 µM; in the test on ACHN renal, 25.4 µM; in the test with SR leukemia, 16.3 µM; in the test on MCF7 breast, 28.6 µM. Moreover, the GI50 in the test with CAKI-1 renal is 36.3 µM; in the test with UACC-62 melanoma, 17.7 µM. The TGI with U251 CNS is 72.1 µM; in the test on OVCAR-3 ovarian, over 100 µM; with TK-10 renal, over 100 µM; with ACHN renal, 93.4 µM; in the test with SR leukemia, 48.2 µM; with MCF7 breast, over 100 µM. Moreover, the figures for the TGI in the test on CAKI-1 renal and in the test with UACC-62 melanoma were over 100 µM and 35.6 µM, respectively.

`CCn1cc(/C=C2\Oc3cc(OCC#N)ccc3C2=O)c2cc(OC)ccc21`: the GI50 was 0.425 µM with U251 CNS; 0.127 µM with OVCAR-3 ovarian; 18.1 µM with TK-10 renal; 0.847 µM with ACHN renal; 0.102 µM in the test on SR leukemia; 0.209 µM with MCF7 breast. Further, the GI50 with CAKI-1 renal was 0.0663 µM; in the test with UACC-62 melanoma, 0.171 µM. The TGI is over 48.7 µM in the test on U251 CNS; 4.94 µM with OVCAR-3 ovarian; over 64.1 µM in the test on TK-10 renal; over 100 µM in the test with ACHN renal; over 100 µM in the test on SR leukemia; over 100 µM with MCF7 breast. In addition, the TGI in the test with CAKI-1 renal was 28.9 µM; with UACC-62 melanoma, over 53.4 µM.

For `FC(F)(F)c1ccc(-c2nn3ncccc3c2-c2ccnc(Nc3ccc4c(c3)OCCO4)n2)cc1`, the GI50 in the test with U251 CNS was 14.1 µM; in the test on OVCAR-3 ovarian, 11.6 µM; with TK-10 renal it was 10.1 µM; in the test on ACHN renal, 14.7 µM; in the test on SR leukemia, over 25 µM; with MCF7 breast, 8.04 µM. Further, the GI50 in the test with CAKI-1 renal is 4.86 µM; in the test on UACC-62 melanoma, 10 µM. Moreover, the TGI with U251 CNS, in the test on OVCAR-3 ovarian, in the test on TK-10 renal, in the test with ACHN renal, in the test with SR leukemia and in the test on MCF7 breast was over 25 µM throughout. Moreover, the TGI with CAKI-1 renal was over 19.2 µM; in the test on UACC-62 melanoma it was over 25 µM.
